Measurements: PMC3402541, “Guanidylation and Tail Effects in Cationic Antimicrobial Lipopeptoids” (PLoS ONE, 2012)
≈ marks a conversion by molar mass, not a printed value.

What was measured:
[1] = test system: E. faecalis ATCC 29212; format: cell-based, Enterococcus faecalis; settings: ATCC 29212, Mueller-Hinton broth, 24 hr, 37°C, without replication; for MIC E. faecalis in the presence of 4% bovine serum albumin: 4% BSA added, macrobroth dilution; for MIC E. faecalis: CLSI macrobroth dilution, 5 x 10^5 CFU/mL
How it was run: (§1)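 CLSI macrobroth dilution with doubling dilutions in cation-adjusted Mueller-Hinton broth in glass tubes, inoculum about 5 × 10^5 CFU/mL. Incubation 24 hr at 37°C in ambient air before MIC reading. Single determinations, no replication.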

[2] = test system: P.aeruginosa CAN-ICU 62308; format: cell-based, Pseudomonas aeruginosa; settings: CAN-ICU 62308, Mueller-Hinton broth, 24 hr, 37°C, without replication; for MIC P.aeruginosa in the presence of 4% bovine serum albumin: 4% BSA added, macrobroth dilution; for MIC P.aeruginosa: CLSI macrobroth dilution, 5 x 10^5 CFU/mL
How it was run: as §1

[3] = test system: S. maltophilia CAN-ICU 62584; format: cell-based, Stenotrophomonas maltophilia; settings: CAN-ICU 62584, Mueller-Hinton broth, 24 hr, 37°C, without replication; for MIC S. maltophilia in the presence of 4% bovine serum albumin: 4% BSA added, macrobroth dilution; for MIC S. maltophilia: CLSI macrobroth dilution, 5 x 10^5 CFU/mL
How it was run: as §1

[4] = test system: Gram negative bacteria; test: MIC with 4% BSA, summary over Gram negative strains; format: cell-based; settings: 4% BSA added
Experimental: Antimicrobial activity of the purified lipopeptoids was determined without replication against a panel of clinically relevant and standard reference bacterial strains according to CLSI macrobroth standards. Stock solutions at 512 µg/mL were prepared in water, with DMSO as needed, and testing was performed in glass test tubes using Muller-Hinton broth and bacteria adjusted to 5 × 10^5 CFU/mL. Bacteria were incubated with the lipopeptoid of interest for 24 hr at 37°C prior to reading. […]
After subculturing the relevant bacteria twice from frozen stock, in vitro activities of the antimicrobials were determined by macrobroth dilution methodology in accordance with the Clinical and Laboratory Standards Institute (CLSI) guidelines (3). The MICs were determined using glass test tubes (2 mL/tube) containing doubling antimicrobial dilutions of cation adjusted Mueller-Hinton broth inoculated to achieve a final concentration of approximately 5 x 10^5 CFU/mL, incubated in ambient air for 24 hr prior to reading. […]

[5] = test system: E. faecium ATCC 27270; format: cell-based; settings: ATCC 27270, Mueller-Hinton broth, 24 hr, 37°C, without replication; for MIC E. faecium in the presence of 4% bovine serum albumin: 4% BSA added, macrobroth dilution; for MIC E. faecium: CLSI macrobroth dilution, 5 x 10^5 CFU/mL
How it was run: as §1

CCCCCCCCCCCCCCCC[N+](C)(C)C.[Cl-] [CTAC, Cetyltrimethylammonium chloride, reference compound]
MIC E. faecalis in the presence of 4% bovine serum albumin [1]: 32 µg/mL
MIC E. faecalis [1]: 1 µg/mL
MIC P.aeruginosa in the presence of 4% bovine serum albumin [2]: 512 µg/mL
MIC P.aeruginosa [2]: 64 µg/mL
MIC S. maltophilia in the presence of 4% bovine serum albumin [3]: 512 µg/mL
MIC S. maltophilia [3]: 32 µg/mL
MIC against Gram negative bacteria with 4% BSA [4]: ≥ 512 µg/mL
MIC E. faecium in the presence of 4% bovine serum albumin [5]: 64 µg/mL
MIC E. faecium [5]: 0.5 µg/mL

NCCCCN(CC(N)=O)C(=O)CNC(=O)CN(CCCCN)C(=O)CCC(F)(F)C(F)(F)C(F)(F)C(F)(F)C(F)(F)C(F)(F)C(F)(F)C(F)(F)F [F11-NlysGNlys]
MIC E. faecalis in the presence of 4% bovine serum albumin [1]: 256 µg/mL
MIC E. faecalis [1]: 64 µg/mL (≈ 79.5 µM)
MIC P.aeruginosa in the presence of 4% bovine serum albumin [2]: >512 µg/mL
MIC P.aeruginosa [2]: 512 µg/mL (≈ 636 µM)
MIC S. maltophilia in the presence of 4% bovine serum albumin [3]: >512 µg/mL
MIC S. maltophilia [3]: >512 µg/mL
MIC E. faecium in the presence of 4% bovine serum albumin [5]: 256 µg/mL
MIC E. faecium [5]: 64 µg/mL (≈ 79.5 µM)

NCCCCN(CC(N)=O)C(=O)CN(CCCCN)C(=O)CN(CCCCN)C(=O)CCC(F)(F)C(F)(F)C(F)(F)C(F)(F)C(F)(F)C(F)(F)C(F)(F)C(F)(F)F [F11-NlysNlysNlys]
MIC E. faecalis in the presence of 4% bovine serum albumin [1]: 512 µg/mL
MIC E. faecalis [1]: 64 µg/mL (≈ 73.1 µM)
MIC P.aeruginosa in the presence of 4% bovine serum albumin [2]: 512 µg/mL
MIC P.aeruginosa [2]: 256 µg/mL (≈ 292 µM)
MIC S. maltophilia in the presence of 4% bovine serum albumin [3]: >512 µg/mL
MIC S. maltophilia [3]: >512 µg/mL
MIC E. faecium in the presence of 4% bovine serum albumin [5]: 256 µg/mL
MIC E. faecium [5]: 64 µg/mL (≈ 73.1 µM)
